We go through 16 molecules from patent publication US11236129B2, “IL-17A binding peptides and medical uses thereof” (Dompe' Farmaceutici S.P.A., priority 2018, dated 2022).

The target in this assay is IL-17RA/IL17RC dimerization induced by IL-17A (Homo sapiens, UniProt Q16552). As to the kind of experiment: IL-17RA/IL17RC dimerization assay in response to IL-17A (PathHunter Cytokine Receptor Assay). The following applies: IL-17A at EC80; read-out: IC50 in IL-17RA/IL7RC dimerization assay. The class given is cell-based. The method, boiled down:
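PathHunter cells with IL-17RA and IL-17RC tagged for β-galactosidase complementation were preincubated 60 min with peptide (1% vehicle). IL-17A was then added at EC80 for 6–16 h at 37 °C, and chemiluminescence was read. Inhibition is relative to the EC80 and vehicle controls.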

Residues, ends and D or L forms follow the SMILES beside them. Some results are limits rather than exact numbers.

Sequence of IL-17RA/IL17RC dimerization induced by IL-17A (Q16552 24-155): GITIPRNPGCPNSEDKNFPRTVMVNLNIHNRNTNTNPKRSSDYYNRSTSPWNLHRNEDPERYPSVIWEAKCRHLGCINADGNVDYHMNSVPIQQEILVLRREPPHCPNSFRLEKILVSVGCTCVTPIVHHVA

`CC[C@H](C)[C@H](NC(C)=O)C(=O)N[C@@H](Cc1c[nH]cn1)C(=O)N[C@H](C(=O)N[C@H](C(=O)N[C@H](C(=O)N1CCC[C@H]1C(=O)N[C@@H](C)C(=O)N[C@@H](CC(=O)O)C(=O)N[C@@H](CC(C)C)C(=O)N[C@@H](Cc1c[nH]c2ccccc12)C(=O)N[C@@H](CC(=O)O)C(=O)N[C@@H](Cc1c[nH]c2ccccc12)C(=O)N[C@@H](C)C(=O)N[C@@H](CC(N)=O)C(=O)N[C@@H](CCCCN)C(N)=O)[C@@H](C)CC)[C@@H](C)O)C(C)C` [SEQ ID NO: 214] (Ac-IHVTIPADLWDWANK-NH2): the IC50 was less than 10 µM.
For the molecule `CC[C@H](C)[C@H](NC(C)=O)C(=O)N[C@@H](Cc1c[nH]cn1)C(=O)N[C@@H](Cc1ccc(O)cc1)C(=O)N[C@H](C(=O)N[C@H](C(=O)N1CCC[C@H]1C(=O)N[C@@H](C)C(=O)N[C@@H](CC(=O)O)C(=O)N[C@@H](CC(C)C)C(=O)N[C@@H](Cc1c[nH]c2ccccc12)C(=O)N[C@@H](CC(=O)O)C(=O)N[C@@H](Cc1c[nH]c2ccccc12)C(=O)N[C@H](C(=O)N[C@@H](CC(N)=O)C(=O)N[C@@H](CCCCN)C(N)=O)[C@@H](C)CC)[C@@H](C)CC)[C@@H](C)O` [SEQ ID NO: 172] (Ac-IHYTIPADLWDWINK-NH2), the IC50 was less than 10 µM.
Under `CC[C@H](C)[C@H](NC(=O)[C@H](CCC(=O)O)NC(=O)[C@H](CC(C)C)NC(=O)[C@@H]1CCCN1C(=O)[C@@H](NC(=O)[C@H](CO)NC(=O)[C@@H](NC(=O)[C@H](CCCNC(=N)N)NC(=O)[C@H](CC(C)C)NC(C)=O)[C@@H](C)CC)C(C)C)C(=O)N[C@@H](Cc1ccccc1)C(=O)N[C@@H](CCC(=O)O)C(=O)N[C@@H](Cc1c[nH]c2ccccc12)C(=O)N[C@@H](CC(C)C)C(=O)N[C@@H](CCC(N)=O)C(=O)N[C@@H](Cc1c[nH]cn1)C(N)=O` [SEQ ID NO: 252] (Ac-LRISVPLEIFEWLQH-NH2) stands less than 10 µM; under `CC[C@H](C)[C@H](NC(=O)CNC(=O)[C@H](C)NC(=O)CNC(=O)[C@@H]1CCCN1C(=O)[C@@H](NC(=O)CNC(=O)[C@H](C)NC(=O)CNC(=O)[C@@H]1CCCN1C(=O)[C@@H](NC(C)=O)C(C)C)C(C)C)C(=O)N[C@@H](Cc1c[nH]cn1)C(=O)N[C@H](C(=O)N[C@H](C(=O)N[C@H](C(=O)N1CCC[C@H]1C(=O)N[C@@H](C)C(N)=O)[C@@H](C)CC)[C@@H](C)O)C(C)C` [SEQ ID NO: 157] (Ac-VPGAGVPGAGIHVTIPA-NH2), less than 0.5 µM; under `CC[C@H](C)[C@H](NC(C)=O)C(=O)N[C@@H](Cc1c[nH]cn1)C(=O)N[C@H](C(=O)N[C@H](C(=O)N[C@H](C(=O)N1CCC[C@H]1C(=O)N[C@H](C(=O)N[C@@H](CC(=O)O)C(=O)N[C@@H](CC(C)C)C(=O)N[C@@H](Cc1c[nH]c2ccccc12)C(=O)N[C@@H](CC(=O)O)C(=O)N[C@@H](Cc1c[nH]c2ccccc12)C(=O)N[C@H](C(=O)N[C@@H](CC(N)=O)C(=O)N[C@@H](CCCCN)C(N)=O)[C@@H](C)CC)[C@@H](C)CC)[C@@H](C)CC)[C@@H](C)O)C(C)C` [SEQ ID NO: 196] (Ac-IHVTIPIDLWDWINK-NH2), less than 10 µM.
`CC[C@H](C)[C@H](NC(=O)[C@@H](NC(=O)[C@@H](NC(=O)[C@H](Cc1c[nH]cn1)NC(=O)[C@@H](NC(C)=O)C(C)C)C(C)C)[C@@H](C)O)C(=O)N1CCC[C@H]1C(=O)N[C@@H](C)C(=O)N[C@@H](CC(N)=O)C(=O)N[C@@H](CC(C)C)C(=O)N[C@@H](Cc1c[nH]c2ccccc12)C(=O)N[C@@H](CCC(=O)O)C(=O)N[C@@H](Cc1c[nH]c2ccccc12)C(=O)N[C@H](C(=O)N[C@@H](CCCNC(=N)N)C(=O)N[C@@H](CCCNC(=N)N)C(N)=O)C(C)C` [SEQ ID NO: 116] (Ac-VHVTIPANLWEWVRR-NH2): the IC50 was less than 0.5 µM.
Under `CC[C@H](C)[C@H](NC(C)=O)C(=O)N[C@@H](Cc1c[nH]cn1)C(=O)N[C@H](C(=O)N[C@H](C(=O)N[C@H](C(=O)N1CCC[C@H]1C(=O)N[C@@H](C)C(=O)N[C@@H](CC(=O)O)C(=O)N[C@@H](CC(C)C)C(=O)N[C@@H](Cc1c[nH]c2ccccc12)C(=O)N[C@@H](CC(=O)O)C(=O)N[C@@H](Cc1c[nH]c2ccccc12)C(=O)N[C@@H](Cc1ccc(O)cc1)C(=O)N[C@@H](CC(N)=O)C(=O)N[C@@H](CCCCN)C(N)=O)[C@@H](C)CC)[C@@H](C)O)C(C)C` [SEQ ID NO: 219] (Ac-IHVTIPADLWDWYNK-NH2) stands less than 10 µM; under `CC[C@H](C)[C@H](NC(C)=O)C(=O)N[C@@H](Cc1c[nH]cn1)C(=O)N[C@H](C(=O)N[C@H](C(=O)N[C@H](C(=O)N1CCC[C@H]1C(=O)N[C@@H](C)C(=O)N[C@@H](CC(=O)O)C(=O)N[C@@H](CC(C)C)C(=O)N[C@@H](Cc1c[nH]c2ccccc12)C(=O)N[C@@H](CC(=O)O)C(=O)N[C@@H](Cc1c[nH]c2ccccc12)C(=O)N[C@@H](CC(C)C)C(=O)N[C@@H](CC(N)=O)C(=O)N[C@@H](CCCCN)C(N)=O)[C@@H](C)CC)[C@@H](C)O)C(C)C` [SEQ ID NO: 216] (Ac-IHVTIPADLWDWLNK-NH2), less than 10 µM; under `CC[C@H](C)[C@H](NC(C)=O)C(=O)N[C@@H](Cc1c[nH]cn1)C(=O)N[C@H](C(=O)N[C@H](C(=O)N[C@H](C(=O)N1CCC[C@H]1C(=O)N[C@@H](CC(N)=O)C(=O)N[C@@H](CC(=O)O)C(=O)N[C@@H](CC(C)C)C(=O)N[C@@H](Cc1c[nH]c2ccccc12)C(=O)N[C@@H](CC(=O)O)C(=O)N[C@@H](Cc1c[nH]c2ccccc12)C(=O)N[C@H](C(=O)N[C@@H](CC(N)=O)C(=O)N[C@@H](CCCCN)C(N)=O)[C@@H](C)CC)[C@@H](C)CC)[C@@H](C)O)C(C)C` [SEQ ID NO: 197] (Ac-IHVTIPNDLWDWINK-NH2), less than 10 µM.
Under `CC[C@H](C)[C@H](NC(C)=O)C(=O)N[C@@H](Cc1c[nH]cn1)C(=O)N[C@H](C(=O)N[C@H](C(=O)N[C@H](C(=O)N1CCC[C@H]1C(=O)N[C@@H](C)C(=O)N[C@@H](CC(=O)O)C(=O)N[C@@H](CC(C)C)C(=O)N[C@@H](Cc1c[nH]c2ccccc12)C(=O)N[C@@H](CC(=O)O)C(=O)N[C@@H](Cc1c[nH]c2ccccc12)C(=O)N[C@H](C(=O)N[C@@H](CCC(N)=O)C(=O)N[C@@H](CCCCN)C(N)=O)[C@@H](C)CC)[C@@H](C)CC)[C@@H](C)O)C(C)C` [SEQ ID NO: 220] (Ac-IHVTIPADLWDWIQK-NH2) stands less than 10 µM; under `CC[C@H](C)[C@H](NC(C)=O)C(=O)N[C@@H](Cc1c[nH]cn1)C(=O)N[C@H](C(=O)N[C@H](C(=O)N[C@@H](CC(C)C)C(=O)N1CCC[C@H]1C(=O)N[C@@H](C)C(=O)N[C@@H](CC(=O)O)C(=O)N[C@@H](CC(C)C)C(=O)N[C@@H](Cc1c[nH]c2ccccc12)C(=O)N[C@@H](CC(=O)O)C(=O)N[C@@H](Cc1c[nH]c2ccccc12)C(=O)N[C@H](C(=O)N[C@@H](CC(N)=O)C(=O)N[C@@H](CCCCN)C(N)=O)[C@@H](C)CC)[C@@H](C)O)C(C)C` [SEQ ID NO: 181] (Ac-IHVTLPADLWDWINK-NH2), less than 10 µM.
With `CC[C@H](C)[C@H](NC(=O)[C@@H](NC(=O)[C@H](Cc1ccccc1)NC(=O)[C@H](Cc1c[nH]cn1)NC(=O)[C@@H](NC(C)=O)C(C)C)[C@@H](C)O)C(=O)N1CCC[C@H]1C(=O)N[C@@H](CCC(N)=O)C(=O)N[C@@H](CC(=O)O)C(=O)N[C@@H](Cc1c[nH]c2ccccc12)C(=O)N[C@@H](Cc1c[nH]c2ccccc12)C(=O)N[C@@H](CCC(=O)O)C(=O)N[C@@H](Cc1c[nH]c2ccccc12)C(=O)N[C@H](C(=O)N[C@@H](CCCNC(=N)N)C(=O)N[C@@H](CCCNC(=N)N)C(N)=O)C(C)C` [SEQ ID NO: 146] (Ac-VHFTIPQDWWEWVRR-NH2), the IC50 is less than 0.5 µM.
As for `CC[C@H](C)[C@H](NC(C)=O)C(=O)N[C@@H](Cc1c[nH]cn1)C(=O)N[C@H](C(=O)N[C@H](C(=O)N[C@H](C(=O)N1CCC[C@H]1C(=O)N[C@@H](C)C(=O)N[C@@H](CC(=O)O)C(=O)N[C@@H](CC(C)C)C(=O)N[C@@H](Cc1c[nH]c2ccccc12)C(=O)N[C@@H](CC(=O)O)C(=O)N[C@@H](Cc1c[nH]c2ccccc12)C(=O)N[C@H](C(=O)N[C@@H](CC(N)=O)C(=O)N[C@@H](Cc1c[nH]cn1)C(N)=O)[C@@H](C)CC)[C@@H](C)CC)[C@@H](C)O)C(C)C` [SEQ ID NO: 222] (Ac-IHVTIPADLWDWINH-NH2), the figure is less than 10 µM; as for `CC[C@H](C)[C@H](NC(C)=O)C(=O)N[C@@H](Cc1c[nH]cn1)C(=O)N[C@H](C(=O)N[C@H](C(=O)N[C@H](C(=O)N[C@@H](CC(N)=O)C(=O)N[C@@H](C)C(=O)N[C@@H](CC(=O)O)C(=O)N[C@@H](CC(C)C)C(=O)N[C@@H](Cc1c[nH]c2ccccc12)C(=O)N[C@@H](CC(=O)O)C(=O)N[C@@H](Cc1c[nH]c2ccccc12)C(=O)N[C@H](C(=O)N[C@@H](CC(N)=O)C(=O)N[C@@H](CCCCN)C(N)=O)[C@@H](C)CC)[C@@H](C)CC)[C@@H](C)O)C(C)C` [SEQ ID NO: 191] (Ac-IHVTINADLWDWINK-NH2), less than 10 µM; as for `CC[C@H](C)[C@H](NC(C)=O)C(=O)N[C@@H](Cc1c[nH]cn1)C(=O)N[C@H](C(=O)N[C@H](C(=O)N[C@H](C(=O)N[C@@H](C)C(=O)N[C@@H](C)C(=O)N[C@@H](CC(=O)O)C(=O)N[C@@H](CC(C)C)C(=O)N[C@@H](Cc1c[nH]c2ccccc12)C(=O)N[C@@H](CC(=O)O)C(=O)N[C@@H](Cc1c[nH]c2ccccc12)C(=O)N[C@H](C(=O)N[C@@H](CC(N)=O)C(=O)N[C@@H](CCCCN)C(N)=O)[C@@H](C)CC)[C@@H](C)CC)[C@@H](C)O)C(C)C` [SEQ ID NO: 186] (Ac-IHVTIAADLWDWINK-NH2), less than 10 µM.
Turning to `CC[C@H](C)[C@H](NC(=O)[C@@H](NC(=O)[C@@H](NC(=O)[C@H](Cc1c[nH]cn1)NC(=O)[C@@H](NC(C)=O)C(C)C)C(C)C)[C@@H](C)O)C(=O)N1CCC[C@H]1C(=O)N[C@@H](C)C(=O)N[C@@H](CC(=O)O)C(=O)N[C@@H](CC(C)C)C(=O)N[C@@H](Cc1c[nH]c2ccccc12)C(=O)N[C@@H](CC(N)=O)C(=O)N[C@@H](Cc1c[nH]c2ccccc12)C(=O)N[C@H](C(=O)N[C@@H](CCCNC(=N)N)C(=O)N[C@@H](CCCNC(=N)N)C(N)=O)C(C)C` [SEQ ID NO: 119] (Ac-VHVTIPADLWNWVRR-NH2), the IC50 was less than 0.5 µM.
